According to ChEMBL document CHEMBL1909046, “DrugMatrix in vitro pharmacology data”:

What was measured:
[1] = target: Protein kinase C alpha type (Homo sapiens, UniProt P17252); format: cell-based; conditions: sf9;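 note: inhibition of PKCalpha kinase activity measured in an enzyme assay with histone as the phosphorylation substrate; in other assays of this panel Not Active means under 50% inhibition at 10 µM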
[2] = target: T1, Vasoactive intestinal polypeptide receptor 1 (Homo sapiens, UniProt P32241); format: cell membranes, Membrane; conditions: ht-29; note: in other assays of this panel Not Active means under 50% inhibition at 10 µM
T1 sequence (P32241 whole entry): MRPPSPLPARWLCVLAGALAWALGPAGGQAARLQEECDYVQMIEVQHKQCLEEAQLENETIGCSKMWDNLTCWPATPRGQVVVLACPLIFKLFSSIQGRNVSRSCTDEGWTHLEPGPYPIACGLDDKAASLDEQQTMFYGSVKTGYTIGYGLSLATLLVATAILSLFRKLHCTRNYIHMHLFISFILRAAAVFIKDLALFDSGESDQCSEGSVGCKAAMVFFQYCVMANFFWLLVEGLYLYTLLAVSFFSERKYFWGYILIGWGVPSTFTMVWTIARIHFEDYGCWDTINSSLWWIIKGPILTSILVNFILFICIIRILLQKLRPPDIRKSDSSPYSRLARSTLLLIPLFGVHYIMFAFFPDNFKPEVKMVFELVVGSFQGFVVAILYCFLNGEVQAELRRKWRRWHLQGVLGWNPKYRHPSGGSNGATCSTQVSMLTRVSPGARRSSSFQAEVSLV

[3] = target: Sodium-dependent dopamine transporter (Homo sapiens, UniProt Q01959); experiment: DRUGMATRIX: Dopamine Transporter radioligand binding (ligand: [125I] RTI-55); format: cell membranes, CHO-K1, Membrane; conditions: Not Active = under 50% inhibition at 10 µM
Sequence of Sodium-dependent dopamine transporter (Q01959 whole entry): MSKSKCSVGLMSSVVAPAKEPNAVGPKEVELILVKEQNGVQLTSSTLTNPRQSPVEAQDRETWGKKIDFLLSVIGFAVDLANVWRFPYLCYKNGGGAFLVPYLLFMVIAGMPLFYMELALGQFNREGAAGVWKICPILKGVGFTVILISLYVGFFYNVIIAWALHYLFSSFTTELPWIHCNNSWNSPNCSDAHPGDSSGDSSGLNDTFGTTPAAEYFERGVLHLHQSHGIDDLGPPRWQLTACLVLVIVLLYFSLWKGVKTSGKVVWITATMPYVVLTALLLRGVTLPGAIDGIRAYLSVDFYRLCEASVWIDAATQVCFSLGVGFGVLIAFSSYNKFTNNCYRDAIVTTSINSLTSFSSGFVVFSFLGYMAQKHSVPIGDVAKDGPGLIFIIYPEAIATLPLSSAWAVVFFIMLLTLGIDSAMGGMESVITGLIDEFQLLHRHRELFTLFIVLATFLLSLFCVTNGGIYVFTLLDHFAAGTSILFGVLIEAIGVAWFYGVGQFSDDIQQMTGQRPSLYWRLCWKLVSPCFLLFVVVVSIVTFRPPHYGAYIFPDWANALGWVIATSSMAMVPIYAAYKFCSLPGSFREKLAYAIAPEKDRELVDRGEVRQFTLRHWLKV

[4] = DRUGMATRIX: GABAA, Flunitrazepam, Central radioligand binding (ligand: [3H] Flunitrazepam); format: cell membranes, Rattus norvegicus, Wistar, Brain, Membrane; conditions: Not Active = under 50% inhibition at 10 µM
Cytochrome P450 2E1 = Cytochrome P450 2E1 (Homo sapiens, UniProt P05181); conditions: bti-tn-5b1-4; note: in other assays of this panel Not Active means under 50% inhibition at 10 µM
Sequence of Cytochrome P450 2E1 (P05181 whole entry): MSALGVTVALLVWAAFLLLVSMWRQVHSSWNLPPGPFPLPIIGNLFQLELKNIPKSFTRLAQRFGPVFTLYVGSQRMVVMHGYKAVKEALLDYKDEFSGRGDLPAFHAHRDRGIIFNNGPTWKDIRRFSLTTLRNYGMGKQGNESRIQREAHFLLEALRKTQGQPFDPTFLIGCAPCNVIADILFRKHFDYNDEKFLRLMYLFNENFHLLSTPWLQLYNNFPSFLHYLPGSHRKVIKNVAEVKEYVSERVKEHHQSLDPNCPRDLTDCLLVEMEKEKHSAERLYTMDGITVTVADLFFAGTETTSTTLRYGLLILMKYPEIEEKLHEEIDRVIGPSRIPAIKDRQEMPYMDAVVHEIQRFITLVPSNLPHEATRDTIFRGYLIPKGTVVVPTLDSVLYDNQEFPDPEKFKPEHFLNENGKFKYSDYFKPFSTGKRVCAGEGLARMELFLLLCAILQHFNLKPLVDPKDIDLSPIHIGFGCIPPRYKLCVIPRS

Carbonic anhydrase 2 = Carbonic anhydrase 2 (Homo sapiens, UniProt P00918); experiment: DRUGMATRIX: Carbonic Anhydrase II enzyme inhibition (substrate: 4-Nitrophenyl acetate (4-NPA)); format: tissue-based, Erythrocyte; conditions: erythrocyte; Not Active = under 50% inhibition at 10 µM
Acetylcholinesterase = Acetylcholinesterase (Homo sapiens, UniProt P22303); experiment: DRUGMATRIX: Acetylcholinesterase enzyme inhibition (substrate: acetylthiocholine); format: cell-based, HEK293; conditions: hek293; Not Active = under 50% inhibition at 10 µM
Sequence of Acetylcholinesterase (P22303 whole entry): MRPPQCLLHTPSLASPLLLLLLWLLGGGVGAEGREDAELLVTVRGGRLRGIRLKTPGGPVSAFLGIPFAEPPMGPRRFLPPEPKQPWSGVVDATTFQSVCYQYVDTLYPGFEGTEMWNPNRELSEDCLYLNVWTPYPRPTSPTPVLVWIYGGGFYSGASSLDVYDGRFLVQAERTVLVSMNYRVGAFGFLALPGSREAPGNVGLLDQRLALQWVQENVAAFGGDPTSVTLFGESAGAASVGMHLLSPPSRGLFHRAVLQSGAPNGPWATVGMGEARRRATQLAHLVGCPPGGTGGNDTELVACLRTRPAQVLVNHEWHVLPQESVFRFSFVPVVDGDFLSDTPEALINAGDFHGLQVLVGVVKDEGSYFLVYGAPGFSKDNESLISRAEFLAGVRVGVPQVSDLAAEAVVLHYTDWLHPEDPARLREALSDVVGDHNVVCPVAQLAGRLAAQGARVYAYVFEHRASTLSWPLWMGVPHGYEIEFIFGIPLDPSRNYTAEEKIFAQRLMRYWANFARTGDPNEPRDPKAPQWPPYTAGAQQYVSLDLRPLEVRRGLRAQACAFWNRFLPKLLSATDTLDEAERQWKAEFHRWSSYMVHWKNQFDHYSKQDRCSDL

Row | SMILES | IC50 [1] | IC50 [2] | IC50 ([3]; cho-k1) | IC50 [4] | Ki [4] | IC50 (Cytochrome P450 2E1) | Ki (Cytochrome P450 2E1) | IC50 (Carbonic anhydrase 2) | IC50 (Acetylcholinesterase) | IC50 ([3]; read-out: IC50) [µM] | Ki ([3]; read-out: Ki) [µM] | IC50 ([4]; read-out: IC50) [µM] | Ki ([4]; read-out: Ki) [µM]
1 | COc1ccccc1OCC(O)COC(N)=O (stereo not drawn) [METHOCARBAMOL] | Not Active | Not Active | Not Active | Not Active | Not Active | Not Active | Not Active | Not Active | Not Active | – | – | – | –
2 | CO[C@@]1(NC(=O)CSCC#N)C(=O)N2C(C(=O)O)=C(CSc3nnnn3C)CS[C@@H]21 [CEFMETAZOLE] | Not Active | Not Active | Not Active | Not Active | Not Active | Not Active | Not Active | Not Active | Not Active | – | – | – | –
3 | C=C(CC)C(=O)c1ccc(OCC(=O)O)c(Cl)c1Cl [ETHACRYNIC ACID] | Not Active | Not Active | Not Active | Not Active | Not Active | Not Active | Not Active | Not Active | Not Active | – | – | – | –
4 | Oc1ccccc1O [CATECHOL] | Not Active | Not Active | Not Active | Not Active | Not Active | Not Active | Not Active | Not Active | Not Active | – | – | – | –
5 | CC(C)(CO)C(O)C(=O)NCCCO (stereo not drawn) [PANTHENOL] | Not Active | Not Active | Not Active | Not Active | Not Active | Not Active | Not Active | Not Active | Not Active | – | – | – | –
6 | NC(=O)N1c2ccccc2C=Cc2ccccc21 [CARBAMAZEPINE] | Not Active | Not Active | Not Active | Not Active | Not Active | Not Active | Not Active | Not Active | Not Active | – | – | – | –
7 | CN(Cc1cnc2nc(N)nc(N)c2n1)c1ccc(C(=O)N[C@@H](CCC(=O)O)C(=O)O)cc1 [METHOTREXATE] | Not Active | Not Active | Not Active | Not Active | Not Active | Not Active | Not Active | Not Active | Not Active | – | – | – | –
8 | O=P1(N(CCCl)CCCl)NCCCO1 (stereo not drawn) [CYCLOPHOSPHAMIDE ANHYDROUS] | Not Active | Not Active | Not Active | Not Active | Not Active | Not Active | Not Active | Not Active | Not Active | – | – | – | –
9 | C[C@]12CCC(=O)C=C1CC[C@@H]1[C@@H]2[C@@H](O)C[C@@]2(C)[C@H]1CC[C@]2(O)C(=O)CO [HYDROCORTISONE] | Not Active | Not Active | Not Active | Not Active | Not Active | Not Active | Not Active | Not Active | Not Active | – | – | – | –
10 | Cc1cccc(Nc2ccccc2C(=O)O)c1C [MEFENAMIC ACID] | Not Active | Not Active | Not Active | Not Active | Not Active | Not Active | Not Active | Not Active | Not Active | – | – | – | –
11 | CCn1cc(C(=O)O)c(=O)c2cc(F)c(N3CCNCC3)nc21 [ENOXACIN] | Not Active | Not Active | Not Active | Not Active | Not Active | Not Active | Not Active | Not Active | Not Active | – | – | – | –
12 | Cc1c(N(C)CS(=O)(=O)[O-])c(=O)n(-c2ccccc2)n1C.[Na+] [DIPYRONE SODIUM] | Not Active | Not Active | Not Active | Not Active | Not Active | Not Active | Not Active | Not Active | Not Active | – | – | – | –
13 | C#C[C@]1(O)CC[C@H]2[C@@H]3CCC4=Cc5oncc5C[C@]4(C)[C@H]3CC[C@@]21C [DANAZOL] | Not Active | Not Active | – | – | – | Not Active | Not Active | Not Active | Not Active | 6.84 | 5.44 | 54.3 | 44.3
14 | CC(=O)O[C@]1(C(C)=O)CC[C@H]2[C@@H]3C=C(C)C4=CC(=O)CC[C@]4(C)[C@H]3CC[C@@]21C [MEGESTROL ACETATE] | Not Active | Not Active | Not Active | Not Active | Not Active | Not Active | Not Active | Not Active | Not Active | – | – | – | –
15 | CCOC(=O)n1ccn(C)c1=S [CARBIMAZOLE] | Not Active | Not Active | Not Active | Not Active | Not Active | Not Active | Not Active | Not Active | Not Active | – | – | – | –
16 | CN1C(=O)CN=C(c2ccccc2)c2cc(Cl)ccc21 [DIAZEPAM] | Not Active | Not Active | Not Active | – | – | Not Active | Not Active | Not Active | Not Active | – | – | 0.0288 | 0.0235
17 | NC[C@H]1O[C@H](O[C@H]2[C@H](O)[C@@H](O[C@H]3O[C@H](CO)[C@@H](O)[C@H](N)[C@H]3O)[C@H](N)C[C@@H]2N)[C@H](O)[C@@H](O)[C@@H]1O [KANAMYCIN] | Not Active | Not Active | Not Active | Not Active | Not Active | Not Active | Not Active | Not Active | Not Active | – | – | – | –
18 | C[C@@H]1CC[C@H]2[C@@H](C)C(=O)O[C@@H]3O[C@@]4(C)CC[C@@H]1[C@]32OO4 [ARTEMISININ] | Not Active | Not Active | Not Active | Not Active | Not Active | – | – | Not Active | Not Active | – | – | – | –
19 | Cc1cn[nH]c1 [FOMEPIZOLE] | Not Active | Not Active | Not Active | Not Active | Not Active | – | – | Not Active | Not Active | – | – | – | –
20 | COc1ccccc1OCC(O)CO (stereo not drawn) [GUAIFENESIN] | Not Active | Not Active | Not Active | Not Active | Not Active | – | – | Not Active | Not Active | – | – | – | –
21 | N[C@@H](Cc1ccc(F)cc1)C(=O)O | Not Active | Not Active | Not Active | Not Active | Not Active | – | – | Not Active | Not Active | – | – | – | –
22 | CCC[C@@H]1C[C@@H](C(=O)N[C@@H]([C@H]2O[C@H](SC)[C@H](O)[C@@H](O)[C@H]2O)[C@H](C)Cl)N(C)C1 [CLINDAMYCIN] | Not Active | Not Active | Not Active | Not Active | Not Active | – | – | Not Active | Not Active | – | – | – | –
23 | C/C=C\c1ccc(O)c(OC)c1 [ISOEUGENOL] | Not Active | Not Active | Not Active | Not Active | Not Active | – | – | Not Active | Not Active | – | – | – | –
24 | Cc1cnc(C(=O)NCCc2ccc(S(=O)(=O)NC(=O)NC3CCCCC3)cc2)cn1 [GLIPIZIDE] | Not Active | Not Active | Not Active | Not Active | Not Active | – | – | Not Active | Not Active | – | – | – | –
